From the NIST ThermoML archive (doi:10.1016/j.jct.2013.05.047)
Values joined by “and” are separate entries in the source; they are usually repeats but may differ in a detail not shown here. Identical values can stand only once.

Key:
[1] = Molar enthalpy of transition or fusion; details: Crystal; DSC
[2] = for vapor or sublimation pressure: Closed cell (Static) method

Oc1ccc(Br)cc1 [4-bromophenol]
Details	Molar enthalpy of transition or fusion [kcal/mol]
[1]	4.04

vapor or sublimation pressure, [2]
Details	Crystal	Liquid
285.34 K	0.00035 kPa	–
287.33 K	0.00046 kPa	–
289.29 K	0.00057 kPa	–
291.33 K	0.00073 kPa	–
293.31 K	0.00092 kPa	–
295.29 K	0.00116 kPa	–
297.25 K	0.00146 kPa	–
299.23 K	0.00182 kPa	–
301.2 K	0.00229 kPa	–
303.18 K	0.00286 kPa	–
303.2 K	–	0.00555 kPa
305.19 K	0.00358 kPa	–
305.2 K	–	0.00661 kPa
307.17 K	0.00441 kPa	–
307.18 K	–	0.00784 kPa
309.12 K	0.00541 kPa and 0.0054 kPa	–
309.17 K	–	0.00932 kPa
311.05 K	0.00664 kPa	–
311.16 K	–	0.01099 kPa
313.09 K	0.00818 kPa	–
313.12 K	–	0.01288 kPa
315.08 K	0.01002 kPa	–
315.09 K	–	0.01516 kPa
316.89 K	–	0.01755 kPa
317.09 K	0.01219 kPa	–
318.6 K	–	0.02013 kPa
319.01 K	0.01482 kPa	–
320.72 K	–	0.02383 kPa
320.99 K	0.01805 kPa	–
323.03 K	0.02185 kPa	0.02842 kPa
324.98 K	0.02644 kPa	–
325.02 K	–	0.03304 kPa
326.97 K	0.03198 kPa	0.03827 kPa
328.93 K	0.03838 kPa	–
328.95 K	–	0.04429 kPa
330.89 K	–	0.05121 kPa
330.93 K	0.0461 kPa	–
332.9 K	–	0.05904 kPa
334.9 K	–	0.06804 kPa
336.81 K	–	0.07806 kPa
338.78 K	–	0.0882 kPa
340.82 K	–	0.1022 kPa
342.8 K	–	0.1163 kPa
344.73 K	–	0.132 kPa
346.82 K	–	0.1517 kPa
348.66 K	–	0.1712 kPa
350.78 K	–	0.1945 kPa
352.64 K	–	0.2188 kPa
354.73 K	–	0.2475 kPa
356.58 K	–	0.2774 kPa
358.68 K	–	0.3129 kPa
360.5 K	–	0.3497 kPa
362.61 K	–	0.3938 kPa
364.5 K	–	0.4391 kPa
366.58 K	–	0.4925 kPa
368.3 K	–	0.549 kPa
370.51 K	–	0.6102 kPa

Oc1ccc(Cl)cc1 [4-chlorophenol]
Details	Molar enthalpy of transition or fusion [kcal/mol]
[1]	3.35

[2]
Details	Normal melting temperature [°C]	vapor or sublimation pressure [kPa]
273.48 K, Liquid	–	0.00084
273.5 K, Crystal	–	0.00039
275.43 K, Crystal	–	0.00049
275.44 K, Liquid	–	0.00104
277.42 K, Crystal	–	0.00063
277.42 K, Liquid	–	0.00128
279.38 K, Crystal	–	0.00081
279.38 K, Liquid	–	0.00158
281.38 K, Crystal	–	0.00103
281.38 K, Liquid	–	0.00192
283.35 K, Crystal	–	0.0013
283.37 K, Liquid	–	0.00234
285.33 K, Liquid	–	0.00286
285.35 K, Crystal	–	0.00166
287.31 K, Crystal	–	0.00208
287.32 K, Liquid	–	0.00345
289.31 K, Crystal	–	0.00262
289.31 K, Liquid	–	0.00418
291.28 K, Liquid	–	0.00507
291.31 K, Crystal	–	0.00327
293.28 K, Crystal	–	0.00406
293.28 K, Liquid	–	0.00606
295.27 K, Crystal	–	0.00505
295.32 K, Liquid	–	0.00733
297.25 K, Liquid	–	0.00872
297.26 K, Crystal	–	0.00624
299.21 K, Crystal	–	0.00766
299.23 K, Liquid	–	0.01048
301.2 K, Liquid	–	0.01241
301.23 K, Crystal	–	0.00951
303.19 K, Liquid	–	0.01472
303.2 K, Crystal	–	0.01166
305.18 K, Crystal	–	0.01436
305.18 K, Liquid	–	0.01741
307.16 K, Crystal	–	0.01755
307.18 K, Liquid	–	0.02059
309.14 K, Crystal	–	0.02132
309.14 K, Liquid	–	0.02426
311.11 K, Liquid	–	0.02854
311.14 K, Crystal	–	0.02603
313.12 K, Liquid	–	0.03332
315.06 K, Liquid	–	0.03907
317.07 K, Liquid	–	0.04539
319.03 K, Liquid	–	0.05279
321.14 K, Liquid	–	0.06178
323.09 K, Liquid	–	0.07108
325.09 K, Liquid	–	0.08208
327.04 K, Liquid	–	0.09417
329.04 K, Liquid	–	0.1088
331.02 K, Liquid	–	0.1249
Crystal, DTA	43.8	–
